From patent US10072011B2, “Substituted bridged urea analogs as sirtuin modulators” (GlaxoSmithKline Intellectual Property (No.2) Limited, priority 2014, dated 2018)
Like-named read-outs stand apart in the source and are kept apart here.

Target: T1, SIRT1 (Homo sapiens, UniProt Q96EB6)
T1 sequence (Q96EB6 1-747): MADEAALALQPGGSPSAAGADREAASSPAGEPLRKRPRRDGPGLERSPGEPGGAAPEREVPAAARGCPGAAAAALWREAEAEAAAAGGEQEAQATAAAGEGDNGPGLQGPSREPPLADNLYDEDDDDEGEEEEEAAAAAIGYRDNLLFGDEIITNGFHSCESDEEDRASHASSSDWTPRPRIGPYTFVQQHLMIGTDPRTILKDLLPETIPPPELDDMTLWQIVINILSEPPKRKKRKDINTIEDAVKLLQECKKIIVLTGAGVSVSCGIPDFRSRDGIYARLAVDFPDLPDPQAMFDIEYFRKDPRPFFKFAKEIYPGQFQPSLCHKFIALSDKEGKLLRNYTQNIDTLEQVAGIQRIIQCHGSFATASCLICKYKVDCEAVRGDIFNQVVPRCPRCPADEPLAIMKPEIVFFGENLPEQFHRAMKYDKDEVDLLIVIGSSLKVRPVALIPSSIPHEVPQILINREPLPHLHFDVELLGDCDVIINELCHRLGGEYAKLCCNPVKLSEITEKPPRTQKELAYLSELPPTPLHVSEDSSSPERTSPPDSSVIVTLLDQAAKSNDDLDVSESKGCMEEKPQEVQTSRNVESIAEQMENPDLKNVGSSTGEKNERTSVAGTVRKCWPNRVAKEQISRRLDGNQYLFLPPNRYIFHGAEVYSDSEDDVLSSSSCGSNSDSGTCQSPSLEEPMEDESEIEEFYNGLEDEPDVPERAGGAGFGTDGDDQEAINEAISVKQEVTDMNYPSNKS
Assay: Trp mass spectrometry assay of SIRT1 activation (Ac-R-H-K-K(Ac)-W-NH2 peptide)
Assay type: biochemical
Details: for Emax: 25 min, read-out: TRP MAX RESP (percent maximum fold activation)
Outline: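 Mass spectrometry read-out (OAADPR formed, or deacetylated Trp peptide) after a 25 min NAD-dependent deacetylation by E. coli-expressed His-SIRT1, stopped with formic acid.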

[1] = Trp peptide 0.5 μM, 120 μM βNAD+, 10 nM SIRT1, 25 min at 25° C., relative to control (100%)
[2] = Trp peptide 0.5 μM, 120 μM βNAD+, 10 nM SIRT1, 25 min at 25° C.

Emax [1] [%]	TRP Activity (EC1.5, concentration of test compound that results in 150% activation of SIRT1) [2]	Structure (SMILES)	Emax [%]
> 150	A (EC1.5<1 μM)	C[C@@H](NC(=O)c1ccc2c(n1)N(C(=O)Nc1ncc3cc[nH]c3n1)[C@H]1CCN2C1)C(F)(F)F [Example 62, (4S)—N5-(7H-pyrrolo[2,3-d]pyrimidin-2-yl)-N7-((R)-1,1,1-trifluoropropan-2-yl)-3,4-dihydro-1,4-methanopyrido[2,3-b][1,4]diazepine-5,7(2H)-dicarboxamide]	–
> 150	A (EC1.5<1 μM)	O=C(NCC(F)(F)F)c1ccc2c(n1)N(C(=O)Nc1cc(OCCO)ccn1)[C@H]1CCN2C1 [Example 161, (4S)—N5-(4-(2-hydroxyethoxy)pyridin-2-yl)-N7-(2,2,2-trifluoroethyl)-3,4-dihydro-1,4-methanopyrido[2,3-b][1,4]diazepine-5,7(2H)-dicarboxamide]	–
> 150	B (EC1.5 1-25 μM)	C[C@@H](NC(=O)c1ccc2c(n1)N(C(=O)NCC(=O)N(C)C)[C@H]1CCN2C1)C(F)(F)F [Example 217, (4S)—N5-(2-(dimethylamino)-2-oxoethyl)-N7-((R)-1,1,1-trifluoropropan-2-yl)-3,4-dihydro-1,4-methanopyrido[2,3-b][1,4]diazepine-5,7(2H)-dicarboxamide]	–
> 150	A (EC1.5<1 μM)	C[C@@H](NC(=O)c1ccc2c(n1)N(C(=O)Nc1ccc(OC[C@@H](O)CO)nn1)[C@H]1CCN2C1)C(F)(F)F [Example 234, (4S)—N5-(6-((S)-2,3-dihydroxypropoxy)pyridazin-3-yl)-N7-((R)-1,1,1-trifluoropropan-2-yl)-3,4-dihydro-1,4-methanopyrido[2,3-b][1,4]diazepine-5,7(2H)-dicarboxamide]	–
> 150	A (EC1.5<1 μM)	Cc1nc(NC(=O)N2c3nc(C(=O)N[C@H](C)C(F)(F)F)ccc3N3CC[C@H]2C3)ccc1F [Example 269, (4S)—N5-(5-fluoro-6-methylpyridin-2-yl)-N7-((R)-1,1,1-trifluoropropan-2-yl)-3,4-dihydro-1,4-methanopyrido[2,3-b][1,4]diazepine-5,7(2H)-dicarboxamide]	–
> 150	A (EC1.5<1 μM)	CC(F)(F)CNC(=O)c1ccc2c(n1)N(C(=O)Nc1ccccn1)[C@H]1CCN2C1 [Example 47, (4S)—N7-(2,2-difluoropropyl)-N5-(pyridin-2-yl)-3,4-dihydro-1,4-methanopyrido[2,3-b][1,4]diazepine-5,7(2H)-dicarboxamide]	–
> 150	B (EC1.5 1-25 μM)	Cc1ccc2c(NC(=O)N3c4nc(C(=O)NC5CC5)ccc4N4CC[C@H]3C4)n[nH]c2n1 [Example 54, (4S)—N7-cyclopropyl-N5-(6-methyl-1H-pyrazolo[3,4-b]pyridin-3-yl)-3,4-dihydro-1,4-methanopyrido[2,3-b][1,4]diazepine-5,7(2H)-dicarboxamide]	–
> 150	A (EC1.5<1 μM)	Cc1ccc(NC(=O)N2c3nc(C(=O)NCC4CC4)ccc3N3CC[C@H]2C3)nc1 [Example 111, (4S)—N7-(cyclopropylmethyl)-N5-(5-methylpyridin-2-yl)-3,4-dihydro-1,4-methanopyrido[2,3-b][1,4]diazepine-5,7(2H)-dicarboxamide]	–
> 150	A (EC1.5<1 μM)	NC(=O)c1ccc(NC(=O)N2c3nc(C(=O)NCC(F)(F)F)ccc3N3CC[C@H]2C3)nc1 [Example 143, (4S)—N5-(5-carbamoylpyridin-2-yl)-N7-(2,2,2-trifluoroethyl)-3,4-dihydro-1,4-methanopyrido[2,3-b][1,4]diazepine-5,7(2H)-dicarboxamide]	–
> 150	A (EC1.5<1 μM)	Cc1ncc(-c2ccnc(NC(=O)N3c4nc(C(=O)N[C@H](C)C(F)(F)F)ccc4N4CC[C@H]3C4)c2)s1 [Example 148, (4S)—N5-(4-(2-methylthiazol-5-yl)pyridin-2-yl)-N7-((R)-1,1,1-trifluoropropan-2-yl)-3,4-dihydro-1,4-methanopyrido[2,3-b][1,4]diazepine-5,7(2H)-dicarboxamide]	–
> 150	A (EC1.5<1 μM)	CC[C@@H](CO)NC(=O)c1ccc2c(n1)N(C(=O)Nc1ccccn1)[C@H]1CCN2C1 [Example 30, (4S)—N7-((S)-1-hydroxybutan-2-yl)-N5-(pyridin-2-yl)-3,4-dihydro-1,4-methanopyrido[2,3-b][1,4]diazepine-5,7(2H)-dicarboxamide]	–
> 150	A (EC1.5<1 μM)	O=C(NC1CCCC1)c1ccc2c(n1)N(C(=O)Nc1ccccn1)[C@H]1CCN2C1 [Example 35, (4S)—N7-cyclopentyl-N5-(pyridin-2-yl)-3,4-dihydro-1,4-methanopyrido[2,3-b][1,4]diazepine-5,7(2H)-dicarboxamide]	–
> 150	B (EC1.5 1-25 μM)	O=C(NCCCO)c1ccc2c(n1)N(C(=O)Nc1ccccn1)[C@H]1CCN2C1 [Example 218, (4S)—N7-(3-hydroxypropyl)-N5-(pyridin-2-yl)-3,4-dihydro-1,4-methanopyrido[2,3-b][1,4]diazepine-5,7(2H)-dicarboxamide]	–
> 150	A (EC1.5<1 μM)	C[C@@H](NC(=O)c1ccc2c(n1)N(C(=O)Nc1ccnn(C)c1=O)[C@H]1CCN2C1)C(F)(F)F [Example 122, (4S)—N5-(2-methyl-3-oxo-2,3-dihydropyridazin-4-yl)-N7-((R)-1,1,1-trifluoropropan-2-yl)-3,4-dihydro-1,4-methanopyrido[2,3-b][1,4]diazepine-5,7(2H)-dicarboxamide]	–
< 150	A (EC1.5<1 μM)	C[C@@H](NC(=O)c1ccc2c(n1)N(C(=O)Nc1cc(NCCO)ccn1)[C@H]1CCN2C1)C(F)(F)F [Example 309, (4S)—N5-(4-((2-hydroxyethyl)amino)pyridin-2-yl)-N7-((R)-1,1,1-trifluoropropan-2-yl)-3,4-dihydro-1,4-methanopyrido[2,3-b][1,4]diazepine-5,7(2H)-dicarboxamide]	–
> 150	A (EC1.5<1 μM)	C[C@@H](NC(=O)c1ccc2c(n1)N(C(=O)Nc1n[nH]c3ncccc13)[C@H]1CCN2C1)C(F)(F)F [Example 163, (4S)—N5-(1H-pyrazolo[3,4-b]pyridin-3-yl)-N7-((R)-1,1,1-trifluoropropan-2-yl)-3,4-dihydro-1,4-methanopyrido[2,3-b][1,4]diazepine-5,7(2H)-dicarboxamide]	–
> 150	A (EC1.5<1 μM)	CC#CCNC(=O)c1ccc2c(n1)N(C(=O)Nc1ccccn1)[C@H]1CCN2C1 [Example 109, (4S)—N7-(but-2-yn-1-yl)-N5-(pyridin-2-yl)-3,4-dihydro-1,4-methanopyrido[2,3-b][1,4]diazepine-5,7(2H)-dicarboxamide]	–
< 150	A (EC1.5<1 μM)	Cc1cc2c(nc1C(=O)N[C@H](C)C(F)(F)F)N(C(=O)Nc1cc(OC[C@H](O)CO)ccn1)[C@H]1CCN2C1 [Example 291, (4S)—N5-(4-((R)-2,3-dihydroxypropoxy)pyridin-2-yl)-8-methyl-N7-((R)-1,1,1-trifluoropropan-2-yl)-3,4-dihydro-1,4-methanopyrido[2,3-b][1,4]diazepine-5,7(2H)-dicarboxamide]	–

Structure (SMILES)	Emax [1] [%]	TRP Activity (EC1.5, concentration of test compound that results in 150% activation of SIRT1) [2]	Emax [%]
CN(C)NC(=O)c1ccc2c(n1)N(C(=O)Nc1ccccn1)[C@H]1CCN2C1 [Example 201, (4S)-7-(2,2-dimethylhydrazinecarbonyl)-N-(pyridin-2-yl)-3,4-dihydro-1,4-methanopyrido[2,3-b][1,4]diazepine-5(2H)-carboxamide]	–	B (EC1.5 1-25 μM)	> 150
O=C(NCC(F)F)c1ccc2c(n1)N(C(=O)Nc1ccccn1)[C@H]1CCN2C1 [Example 116, (4S)—N7-(2,2-difluoroethyl)-N5-(pyridin-2-yl)-3,4-dihydro-1,4-methanopyrido[2,3-b][1,4]diazepine-5,7(2H)-dicarboxamide]	–	A (EC1.5<1 μM)	> 150
